These results are taken from US20260365628A1, “SUBSTITUTED 3,4-DIHYDROQUINOLINONE INHIBITORS OF TSHR” (Septerna, Inc., priority 2022, published 2026).

In general, IC50 refers to the concentration needed to halve the response being measured.

SMILES strings stand for the structures.

T1 sequence (P16473 21-764): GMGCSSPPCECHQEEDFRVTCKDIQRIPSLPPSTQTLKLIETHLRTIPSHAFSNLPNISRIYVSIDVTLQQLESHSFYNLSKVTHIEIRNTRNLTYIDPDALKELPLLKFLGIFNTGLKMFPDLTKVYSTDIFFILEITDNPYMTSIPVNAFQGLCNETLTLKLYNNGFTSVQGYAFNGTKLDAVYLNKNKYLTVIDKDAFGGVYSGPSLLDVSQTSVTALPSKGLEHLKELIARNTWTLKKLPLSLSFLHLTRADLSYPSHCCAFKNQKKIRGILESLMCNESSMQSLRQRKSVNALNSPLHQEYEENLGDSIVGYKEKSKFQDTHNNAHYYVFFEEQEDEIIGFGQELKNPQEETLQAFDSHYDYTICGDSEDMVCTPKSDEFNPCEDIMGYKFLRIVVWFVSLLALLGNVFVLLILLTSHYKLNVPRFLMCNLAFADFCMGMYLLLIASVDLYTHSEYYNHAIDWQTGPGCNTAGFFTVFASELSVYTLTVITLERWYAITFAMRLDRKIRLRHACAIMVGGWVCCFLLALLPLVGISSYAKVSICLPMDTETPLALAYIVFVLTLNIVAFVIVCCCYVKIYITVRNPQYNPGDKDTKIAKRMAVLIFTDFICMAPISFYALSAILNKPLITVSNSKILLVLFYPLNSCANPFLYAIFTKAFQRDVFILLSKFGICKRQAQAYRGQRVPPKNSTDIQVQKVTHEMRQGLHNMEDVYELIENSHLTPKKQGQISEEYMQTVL

This assay has as its target T1, hTSHR (Homo sapiens, UniProt P16473).
T1 construct: expressed in transfected cells
The assay can be described thus: hTSHR TR-FRET cAMP Assay (inhibition of M22-stimulated cAMP production). The note with it: Expi293F Inducible cells stably expressing hTSHR; cAMP HTRF; stimulated with EC80 of anti-TSHR antibody M22; 15 min compound preincubation, 30 min at 37° C.; read-out: Activity (IC50 bins). It counts as cell-based. The procedure: Assays were performed using Expi293F Inducible cells (Invitrogen) stably expressing hTSHR via a pcZeo TetO DNA plasmid. Cell lines were maintained in suspension in Expi293 Expression Medium (ThermoFisher Scientific) supplemented with 10 µg/mL Blasticidin and 10 μg/mL Zeocin and incubated at 37° C., 8% CO2, with shaking. hTSHR cells were incubated overnight at 32° C., 5% C02, with shaking, but […] Doxycycline. Assay-ready aliquots were prepared by harvesting each cell type separately 24-hours post-induction. Cells were pelleted at 4° C., resuspended in Expi293 Expression media+10% DMSO, aliquoted, and kept frozen at −80° C. until ready for use.
For the assay, concentration-response curves of test and reference compounds were added to 384-well plates using an Echo 650 liquid handler (Beckman Coulter) and backfilled with DMSO to a final concentration of 0.5%. cAMP was measured using the cisbio cAMP Gs dynamic HTRF kit (PerkinElmer) according to manufacturer instructions. Aliquots of frozen hTSHR cells were quickly thawed and washed with phosphate-buffered saline (Sigma-Aldrich) to remove media and DMSO. The cells were resuspended in kit-supplied Stimulation Buffer at 0.8×10^6 cells/mL. 7.5 μL of the hTSHR cell dilution were added to each well of the assay plate and incubated with the compounds for 15 minutes in a 37 C, 0% CO2 incubator. 2.5 μL of Vehicle control or an EC80 concentration of recombinant human anti-TSHR antibody (M22, Creative Biolabs) was added to stimulate cAMP production. Cells were incubated with for 30 minutes at 37° C., 0% CO2. Following this incubation, the cells were lysed and accumulated cAMP was detected through the addition of kit-supplied lysis buffer containing d2-reagent and Eu-cryptate antibody. The HTRF signal was quantified using a BMG Clariostar plate reader optimized for HTRF assays. The HTRF ratio was determined by dividing the signal output at […] by that at 620 nm. Data were normalized to the signal produced by the EC80 concentration of either M22 or FSH (0% inhibition) and vehicle (no agonist, 100% inhibition).
A general note: TR-FRET usually uses a lanthanide donor and a delayed reading to cut background.
As for `CC(C)(C)NC(=O)Nc1ccc2c(c1)CCC(=O)N2Cc1ccccc1F` [Example 19, 3-tert-butyl-1-{1-[(2-fluorophenyl)methyl]-2-oxo-3,4-dihydroquinolin-6-yl}urea], the IC50 was below 100 nM.
As for `CC(C)(C)NC(=O)Nc1ccc2c(c1)CCC(=O)N2Cc1ccccc1C#N` [Example 20, 1-(tert-butyl)-3-(1-(2-cyanobenzyl)-2-oxo-1,2,3,4-tetrahydroquinolin-6-yl)urea], the IC50 was below 100 nM.
Next, `Cc1cccc(CN2C(=O)CCc3cc(NC(=O)NC(C)(C)C)ccc32)c1` [Example 21, 1-(tert-butyl)-3-(1-(3-methylbenzyl)-2-oxo-1,2,3,4-tetrahydroquinolin-6-yl)urea]: below 100 nM; `COc1cccc(CN2C(=O)CCc3cc(NC(=O)NC(C)(C)C)ccc32)c1` [Example 22, 1-(tert-butyl)-3-(1-(3-methoxybenzyl)-2-oxo-1,2,3,4-tetrahydroquinolin-6-yl)urea]: below 100 nM.
Turning to `CC(C)(C)NC(=O)Nc1ccc2c(c1)CCC(=O)N2Cc1cccc(C(F)(F)F)c1` [Example 23, 1-(tert-butyl)-3-(2-oxo-1-(3-(trifluoromethyl)benzyl)-1,2,3,4-tetrahydroquinolin-6-yl)urea], the IC50 is below 100 nM.
Next, `CC(C)(C)NC(=O)Nc1ccc2c(c1)CCC(=O)N2Cc1cc(Cl)ccc1Cl` [Example 24, 3-tert-butyl-1-{1-[(2,5-dichlorophenyl)methyl]-2-oxo-3,4-dihydroquinolin-6-yl}urea]: below 100 nM; `CC(C)(C)NC(=O)Nc1ccc2c(c1)CCC(=O)N2Cc1cc(Cl)cc(Cl)c1` [Example 25, 1-(tert-butyl)-3-(1-(3,5-dichlorobenzyl)-2-oxo-1,2,3,4-tetrahydroquinolin-6-yl) urea]: below 100 nM; `CC(C)(C)NC(=O)Nc1ccc2c(c1)CCC(=O)N2Cc1cccc(F)c1` [Example 26, 1-(tert-butyl)-3-(1-(3-fluorobenzyl)-2-oxo-1,2,3,4-tetrahydroquinolin-6-yl)urea]: below 100 nM.
Turning to `CC(C)(C)NC(=O)Nc1ccc2c(c1)CCC(=O)N2Cc1ccc(F)cc1` [Example 27, 1-(tert-butyl)-3-(1-(4-fluorobenzyl)-2-oxo-1,2,3,4-tetrahydroquinolin-6-yl)urea], the IC50 lay in the range of 100 to 1000 nM.
For the compound `CCC(c1ccccc1)N1C(=O)CCc2cc(NC(=O)NC(C)(C)C)ccc21` (stereo not shown) [Example 28, 1-(tert-butyl)-3-(2-oxo-1-(1-phenylpropyl)-1,2,3,4-tetrahydroquinolin-6-yl)urea], the IC50 was above 1000 nM.
Turning to `CC(C)(C)NC(=O)Nc1ccc2c(c1)CC(C)(C)C(=O)N2Cc1ccccc1` [Example 29, 1-(1-benzyl-3,3-dimethyl-2-oxo-1,2,3,4-tetrahydroquinolin-6-yl)-3-(tert-butyl)urea], the IC50 is above 1000 nM.
The same measure for `CC(C)(C)NC(=O)Nc1ccc2c(c1)CCC(=O)N2C(CO)c1ccccc1` (stereo not shown) [Example 30, 1-(tert-butyl)-3-(1-(2-hydroxy-1-phenylethyl)-2-oxo-1,2,3,4-tetrahydroquinolin-6-yl)urea]: above 1000 nM; for `CC(C)(C)NC(=O)Nc1ccc2c(c1)CC(=O)N2Cc1ccccc1` [Example 31, 1-(1-benzyl-2-oxo-3H-indol-5-yl)-3-tert-butylurea]: above 1000 nM; for `CC(C)C1Cc2cc(NC(=O)NC(C)(C)C)ccc2N(Cc2ccccc2)C1=O` (stereo not shown) [Example 32, 1-(1-benzyl-3-isopropyl-2-oxo-1,2,3,4-tetrahydroquinolin-6-yl)-3-(tert-butyl)urea]: above 1000 nM.
As for `CC(C)(C)NC(=O)Nc1ccc2c(c1)OCC(=O)N2Cc1cccc(Cl)c1` [Example 33, 3-tert-butyl-1-{4-[(3-chlorophenyl)methyl]-3-oxo-2H-1,4-benzoxazin-7-yl}urea], the IC50 was below 100 nM.
The same measure for `C[C@H](c1ccccc1)N1C(=O)COc2cc(NC(=O)NC(C)(C)C)ccc21` [Example 34, (R)-1-(tert-butyl)-3-(3-oxo-4-(1-phenylethyl)-3,4-dihydro-2H-benzo[b][1,4]oxazin-7-yl)urea]: 100 to 1000 nM; for `C[C@@H](c1ccccc1)N1C(=O)COc2cc(NC(=O)NC(C)(C)C)ccc21` [Example 35, (S)-1-(tert-butyl)-3-(3-oxo-4-(1-phenylethyl)-3,4-dihydro-2H-benzo[b][1,4]oxazin-7-yl)urea]: below 100 nM; for `C[C@H](c1cccc(Cl)c1)N1C(=O)COc2cc(NC(=O)NC(C)(C)C)ccc21` [Example 36, (R)-1-(tert-butyl)-3-(4-(1-(3-chlorophenyl)ethyl)-3-oxo-3,4-dihydro-2H-benzo[b][1,4]oxazin-7-yl)urea]: above 1000 nM.
Turning to `C[C@@H](c1cccc(Cl)c1)N1C(=O)COc2cc(NC(=O)NC(C)(C)C)ccc21` [Example 37, (S)-1-(tert-butyl)-3-(4-(1-(3-chlorophenyl)ethyl)-3-oxo-3,4-dihydro-2H-benzo[b][1,4]oxazin-7-yl)urea], the IC50 is below 100 nM.
Turning to `CC(C)(C)NC(=O)Nc1ccc2c(c1)oc(=O)n2Cc1ccccc1` [Example 38, 1-(3-benzyl-2-oxo-2,3-dihydrobenzo[d]oxazol-6-yl)-3-(tert-butyl)urea], the 50% inhibitory concentration (IC50) is above 1000 nM.
For the compound `CC(C)(C)NC(=O)Nc1ccc2c(c1)CCC(=O)N2Cc1cc(C(F)(F)F)ccc1F` [Example 39, 1-(tert-butyl)-3-(1-(2-fluoro-5-(trifluoromethyl)benzyl)-2-oxo-1,2,3,4-tetrahydroquinolin-6-yl)urea], the IC50 is below 100 nM.
As to `Cc1cccc(CN2C(=O)COc3cc(NC(=O)NC(C)(C)C)ccc32)c1` [Example 40, 1-(tert-butyl)-3-(4-(3-methylbenzyl)-3-oxo-3,4-dihydro-2H-benzo[b][1,4]oxazin-7-yl)urea], the IC50 is below 100 nM.
The same measure for `C[C@H]1Oc2cc(NC(=O)NC(C)(C)C)ccc2N(Cc2ccccc2)C1=O` [Example 41, (R)-1-(4-benzyl-2-methyl-3-oxo-3,4-dihydro-2H-benzo[b][1,4]oxazin-7-yl)-3-(tert-butyl)urea]: below 100 nM; for `C[C@@H]1Oc2cc(NC(=O)NC(C)(C)C)ccc2N(Cc2ccccc2)C1=O` [Example 42, (S)-1-(4-benzyl-2-methyl-3-oxo-3,4-dihydro-2H-benzo[b][1,4]oxazin-7-yl)-3-(tert-butyl)urea]: below 100 nM; for `C[C@@H](c1ccccc1)N1C(=O)N(C)Cc2cc(NC(=O)NC(C)(C)C)ccc21` [Example 45, 3-tert-butyl-1-{3-methyl-2-oxo-1-[(1S)-1-phenylethyl]-4H-quinazolin-6-yl}urea]: below 100 nM.
Next, `C[C@H](c1ccccc1)N1C(=O)N(C)Cc2cc(NC(=O)NC(C)(C)C)ccc21` [Example 45A, 3-tert-butyl-1-{3-methyl-2-oxo-1-[(1R)-1-phenylethyl]-4H-quinazolin-6-yl}urea]: above 1000 nM; `C[C@@H](c1cccc(Cl)c1)N1C(=O)N(C)Cc2cc(NC(=O)NC(C)(C)C)ccc21` [Example 46]: below 100 nM; `CN1Cc2cc(NC(=O)NC(C)(C)C)ccc2N(Cc2cccc(Cl)c2)C1=O` [Example 47, 1-(tert-butyl)-3-(1-(3-chlorobenzyl)-3-methyl-2-oxo-1,2,3,4-tetrahydroquinazolin-6-yl)urea]: below 100 nM.
Next, `Cc1cccc(CN2C(=O)CCc3cc(NC(=O)NC(C)(C)C)ccc32)c1F` [Example 48, 1-(tert-butyl)-3-(1-(2-fluoro-3-methylbenzyl)-2-oxo-1,2,3,4-tetrahydroquinolin-6-yl)urea]: below 100 nM; `Cc1ccc(F)c(CN2C(=O)CCc3cc(NC(=O)NC(C)(C)C)ccc32)c1` [Example 49, 1-(tert-butyl)-3-(1-(2-fluoro-5-methylbenzyl)-2-oxo-1,2,3,4-tetrahydroquinolin-6-yl)urea]: below 100 nM; `CC(C)(C)NC(=O)Nc1ccc2c(c1)OCC(=O)N2Cc1cccc(C(F)(F)F)c1` [Example 50, 1-(tert-butyl)-3-(3-oxo-4-(3-(trifluoromethyl)benzyl)-3,4-dihydro-2H-benzo[b][1,4]oxazin-7-yl)urea]: below 100 nM.
Take `CC(C)(C)NC(=O)Nc1ccc2c(c1)CC(CO)C(=O)N2Cc1ccccc1` (stereo not shown) [Example 51, 1-(1-benzyl-3-(hydroxymethyl)-2-oxo-1,2,3,4-tetrahydroquinolin-6-yl)-3-(tert-butyl)urea]: the IC50 was above 1000 nM.
`C[C@H](c1cccc(Cl)c1)N1C(=O)N(C)Cc2cc(NC(=O)NC(C)(C)C)ccc21` [Example 52]: the IC50 is above 1000 nM.
For `Cc1cccc(CN2C(=O)CCc3cc(NC(=O)NC(C)(C)C)ccc32)c1C#N` [Example 53, 3-tert-butyl-1-{1-[(2-cyano-3-methylphenyl)methyl]-2-oxo-3,4-dihydroquinolin-6-yl}urea], the IC50 was 100 to 1000 nM.
